Measured values published in US8530680B2, “System and method for controlling growth of microorganisms with brominated furanones” (Syracuse University, priority 2008, dated 2013).

Experiments:
[1] = tested on: Trametes versicolor strain TV7B2-59; assay: Fungal growth on MEA plates with furanone; format: cell-based; design: key to growth on plate, TV7B2-59: −: No growth was observed; +: normal growth was seen; conditions: for growth on plate, TV7B2-59: 60 μg/mL, 7 days at 30° C.; for growth inhibition test, inhibitory concentration, TV7B2-59: tested at 1, 5, 30, 60 μg/mL, 7 days
Description: This Example examines the effect of brominated furanones on the growth of fungi associated with damage to building material. Six fungal strains were the subject of these experiments; Gloeophyllum trabeum (strains GT598 and GT599), Chaetomium globosum (wildtype strain and CG572), and Trametes versicolor (strains TV7B2-59 and TV57MAD277). The species were developed on 2% Malt-Extract Agar (MEA) plates and stored inverted at 4° C. The stocks were refreshed by streaking new plates every two months.
The brominated and non-brominated furanones were added to MAE agar plates at different concentrations. The brominated furanones were dissolved in either ethanol (“EtOH”) or methanol (“MeOH”) as stock solutions, as shown in Table 5. The non-brominated furanones were purchased from Sigma (St. Louis, Mo.). The furanone stocks were stored at 4° C.
MAE agar plates containing the same amounts of ethanol/methanol were also prepared as negative controls to eliminate any solvent effects. The plates were prepared using either 90 mm or 60 mm petri dishes and were stored inverted at 4° C. until use.
Different concentrations of furanones were studied to compare their antifungal activities. The plates were inoculated with the six fungal strains using a platinum loop and were incubated upside down at 30° C. for 7 days to monitor the growth. The initial screening was performed using a single 60 μg/mL furanone concentration.

E. coli = E. coli growth inhibition (results not shown); format: cell-based; conditions: at / up to 60 μg/mL
C. albicans = C. albicans viability assay based on colony-forming unit (CFU) counting; format: cell-based, Candida albicans; conditions: 60 μg/mL, 6 hours in 0.85% NaCl buffer
Description: To further examine the effect of brominated furanones on fungal growth and understand whether BFs are fungicidal agents to C. albicans, BF1 was used as the representative compound in a viability assay based on colony-forming unit (“CFU”) counting. An overnight culture of C. albicans was sub-cultured in 100 mL of SD medium to an initial OD600 of 0.005 and was grown for 24 hours. The cells were then harvested by centrifugation at 4,500 rpm for 5 minutes at room temperature and washed twice with 0.85% NaCl buffer. Then the cells were resuspended in 0.85% NaCl buffer and supplemented with 0, or 60 μg/mL BF1, BF8, BF9, BF10, BF11, BF12, or BF14 to an OD600 of 2.0 using 17×100-mm polystyrene test tubes (Fisher Scientific). After incubation at 30° C. for 6 hours with shaking at 200 rpm, the treated cells were spread on Yeast Extract Peptone Dextrose (YPD) plates containing 20 g/L peptone, 10 g/L yeast extract, 20 g/L dextrose and 15 g/L agar. The colony-forming units (CFUs) on the plates were counted after 24 hours of incubation at 30° C. to evaluate the killing of C. albicans by furanones. Duplicate samples for each furanone were tested and five agar plates were counted for each sample.

[2] = tested on: extracellular AI-2 activities of E. coli; assay: AI-2 bioluminescence assay (V. harveyi BB170 reporter, E. coli supernatants); format: cell-based; conditions: 60 μg/mL, E. coli culture 8 hours, supernatant on V. harveyi BB170
Description: To explore if brominated furanones have an interaction with quorum-sensing based on AI-2, a bioluminescence assay was conducted. Specifically, to examine whether the novel BFs have any inhibitory effects on universal QS signal AI-2, the bioluminescence of the reporter Vibrio harveyi (“V. harveyi”) strain BB170 was used as an indicator of AI-2 activities.
The E. coli strains RP437 [thr-1(Am) leuB6 his-4 metF159(Am) eda-50 rpsL1356 thi-1 ara-14 mtl-1 xyl-5 tonA31 tsx-78 lacY1 F-] and quorum-sensing mutant BW25113 ΔLuxS [ΔluxS::kan^r lacI^q rrnB3 ΔlacZ4787 hsdR514 Δ(araBAD)567 Δ (rhaBAD)568 rph-1] were routinely grown at 37° C. with shaking at 200 rpm in LB medium containing 10 g/L NaCl, 5 g/L yeast extract and 10 g/L tryptone. […]
The reporter strain V. harveyi BB170 was grown in AB medium at 30° C. for 16 hours. […] The subcultures were incubated at 30° C. and the bioluminescence was measured every hour as an indicator of AI-2 activity using a luminometer (Model 20/20m Turner BioSystems, Inc., Sunnyvale, Calif.). The colony-forming units (CFUs) of V. harveyi strain BB170 were counted after spreading the cell cultures on LM agar plates containing 10 g/L tryptone, 5 g/L yeast extract, 20 g/L NaCl and 15 g/L agar plates and incubating at 30° C. for 24 hours.
It was previously known that the V. harveyi BB170 strain produces luminescence in response to AI-2 but not in response to homoserine lactones (AHLs) as a result of a mutation in the AHL sensor gene. At low cell densities, the basal level of AI-2 will not trigger significant production of luminescence in V. harveyi BB170; however, at high cell densities, the extracellular AI-2 concentration will reach a certain threshold and induce the bioluminescence of V. harveyi. […]

Compound	growth on plate, TV7B2-59 [1]	growth inhibition test, inhibitory concentration, TV7B2-59 [1] [µg/mL]	growth inhibition of E. coli (E. coli)	reduction of CFU (C. albicans) [%]	reduction of extracellular AI-2 activity [2] [%]
CCCCC1=C(Br)/C(=C/Br)OC1=O [BF1, 4-bromo-5Z-(bromomethylene)-3-butylfuran-2-one]	−	5			
CC1=C(Br)/C(=C/Br)OC1=O [BF8, 4-bromo-5Z-(bromomethylene)-3-methylfuran-2-one]	−	30	did not inhibit	50	72.9±1.0
CC1=CC(=C(Br)Br)OC1=O [BF9, 5-(dibromomethylene)-3-methylfuran-2-one]	−	5	does not inhibit		42.2±0.3
O=C1OC(=C(Br)Br)C=C1C(Br)Br [BF10, 3-(dibromomethyl)-5-(dibromomethylene)furan-2-one]	−	30		100	31.0±5.1
